Experimental findings from patent US7763596B2, “Selective glucocorticoid receptor agonists” (The University of Manchester, priority 2000, dated 2010) are described below.

Data set [1] concerns the target T1, endogenous GR (Homo sapiens, UniProt P04150).
T1 construct: This cell line contains functional endogenous GR; endogenous in cells; host or cells: A549
T1 sequence (P04150 1-777): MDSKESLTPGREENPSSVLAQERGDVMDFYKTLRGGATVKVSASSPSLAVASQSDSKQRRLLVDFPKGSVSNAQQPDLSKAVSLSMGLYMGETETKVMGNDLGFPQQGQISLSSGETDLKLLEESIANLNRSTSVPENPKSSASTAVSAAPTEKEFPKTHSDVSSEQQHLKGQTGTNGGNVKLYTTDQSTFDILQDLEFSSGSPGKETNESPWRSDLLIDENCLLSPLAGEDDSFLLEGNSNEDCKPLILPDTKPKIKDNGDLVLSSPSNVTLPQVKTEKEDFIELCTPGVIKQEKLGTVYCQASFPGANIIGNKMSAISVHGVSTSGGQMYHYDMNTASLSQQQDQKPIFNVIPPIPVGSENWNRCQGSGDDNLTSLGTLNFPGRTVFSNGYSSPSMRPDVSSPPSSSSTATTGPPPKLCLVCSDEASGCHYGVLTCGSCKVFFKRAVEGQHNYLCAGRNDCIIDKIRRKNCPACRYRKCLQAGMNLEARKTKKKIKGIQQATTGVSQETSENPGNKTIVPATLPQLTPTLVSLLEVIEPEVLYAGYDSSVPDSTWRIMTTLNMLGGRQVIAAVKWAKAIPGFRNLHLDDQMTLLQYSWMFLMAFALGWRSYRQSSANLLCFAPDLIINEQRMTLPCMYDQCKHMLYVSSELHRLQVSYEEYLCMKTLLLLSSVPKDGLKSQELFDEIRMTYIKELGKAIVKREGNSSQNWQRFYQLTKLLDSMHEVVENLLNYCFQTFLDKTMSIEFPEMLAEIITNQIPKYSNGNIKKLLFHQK
The experiment in a line: Transrepression assay using endogenous GR in the A549 lung epithelial cell line (TNF, NRE luciferase). The class given is cell-based. Particulars: compound G at 1, 10, 100 and 500 nM. The source says:
(§1) The A549 cell line (ECACC:86012804) is derived from the human lung epithelial cells from a carcinoma. This cell line contains functional endogenous GR and is stimulated by Tumour Necrosis Factor (TNF) to produce IL-8.
In this assay TNF was used to stimulate NFkB activity in a cell line that expressed endogenous GR. The ability of NFkB to activate an NRE “driving” a luciferase reporter gene could then be repressed by GR in a ligand dependent manner and, therefore, used to measure transrepression.
COS7 cells were transfected with 3 μg NRE-Luc per 10 cm tissue culture dish. The cells were plated out in to 24 well plates after transfection and left for 18 hours to recover before the steroids of FIGS. 1 and 2 were added. Next TNF was added to the samples after 3 hours incubation with the steroids and after another 15 hours the cells were lysed and a luciferase assay was performed.

The subject of data set [2] is IL-8. The data set is described as follows: Repression of endogenous IL-8 in A549s. The class given is cell-based, human. The note with it: A549 cells; compound G at 100 nM, p=0.0076.
Excerpt: as §1
In this assay TNF was used to stimulate NFkB activity in a cell line that expressed endogenous GR. The ability of NFkB to induce IL-8 gene transcription could then be repressed by GR in a ligand dependent manner and, therefore, used to measure transrepression.
COS7 cells were transfected with 3 μg NRE-Luc per 10 cm tissue culture dish. The cells were plated out in to 24 well plates after transfection and left for 18 hours to recover before the steroids of FIGS. 1 and 2A were added. After incubation for 3 hours with the steroids, TNF was added to the samples and after another 15 hours an IL-8 assay (R&D systems) was performed on the cell supernatants according to the manufacturers instructions. Briefly, triplicates of 100 μl of a 1:2 dilution of cell supernatant and 100 μl of a known dilution series of IL-8 were added to the wells of a microtitre plate coated with a monoclonal IL-8 antibody, the samples were incubated with a polyclonal biotinylated IL-8 antibody for 1 hour at room temperature and washed. Streptavidin horse radish peroxidase solution was then added to all wells and incubated for 30 mins before being washed. Tetramethyl benzidine (TMB; a chromagen) was added to all the wells and incubated in the dark for 10 mins, the reaction was stopped by the addition of H2SO4 and the absorbance of each well was read on a spectrophotometer using 450 nm as the primary wavelength. Regression analysis was performed on the standard data and the unknowns were expressed as pg/ml of IL-8 in comparison to the standards.

Data set [3] addresses T2, GFP tagged GR (Homo sapiens, UniProt P04150).
T2 construct: expressed in transfected cells; host or cells: COS 7
T2 sequence (P04150 1-777): T1 sequence (P04150 1-777)
The data set is described as follows: Nuclear translocation using GFP tagged GR and fluorescent microscopy. The class given is cell-based. Particulars: COS 7 cells, 100 nM, 3 hours. The source says: The un-liganded GR is present in the cytoplasm of cells in association with heat shock proteins (HSPs). The binding of an agonist ligand to the GR causes dissociation from the HSPs and translocation to the nucleus. A type I antagonist ligand can bind to the GR but cannot translocate to the nucleus. A type II antagonist ligand can bind to the GR, translocate to the nucleus and bind to DNA but cannot activate gene transcription. Therefore, the ability of a putative ligand to translocate the GR helps to determine its status as an agonist or antagonist. COS 7 cells were transfected with 5 μg of a green fluorescent protein (GFP) tagged GR expression vector. After transfection, these cells were split into 6 well plates with sterile microscope cover slips placed at the bottom of each well. The cells were allowed to recover for 18 hours and then the medium was removed, the cells were washed three times with sterile phosphate buffered saline (PBS) and new medium was added containing charcoal stripped FCS in place of normal FCS. The cells were incubated for 18 hours and then the steroids of FIGS. 1 and 2A were added to make a final concentration of 100 nM. The cells were incubated for a further 3 hours and then the medium was aspirated and the cells were fixed to the glass coverslips by adding ice cold methanol and incubating at −20° C. for 30 mins. The coverslips with the transfected cells fixed to them were mounted on slides and the cellular localisation of the GFP tagged GR was analysed by fluorescent microscopy using an Axioplan 2 microscope (Zeiss, Oberkochen, Germany) and KS300 v3.0 analysis software (Zeiss).

The target of data set [4] is T3, glucocorticoid receptor (Homo sapiens, UniProt P04150).
T3 sequence (P04150 1-777): T1 sequence (P04150 1-777)
The experiment in a line: Transrepression assay using artificially expressed glucocorticoid receptor and P65 in the COS 7 cell line (NRE luciferase). The class given is cell-based. On the set-up: expressed in transfected cells; host or cells: COS 7 (African green monkey kidney, deficient in endogenous GR). Particulars: 1, 10 and 100 nM. The procedure:
All transfections were performed using lipofectamine plus (Gibco BRL), according to the manufacturers' instructions, as previously described^1. Briefly, all cells were seeded at 5×10^5 per 10 cm tissue culture plate 18 hours before transfection, the next day the relevant plasmids were mixed with serum free medium and “Plus” reagent (Gibco BRL) and incubated for 15 mins, lipofectamine reagent was added and the mix was incubated for a further 15 mins, this mix was added to the cells on serum free medium in the 10 cm tissue culture plates and left for 3 hours, the cells were then trypsinised and divided into 24 well plates, the cells were left to recover overnight and were treated with steroid for 16 hours before harvest. All experiments were performed from one transfection in triplicate and on separate occasions with similar results.
The firefly luciferase gene catalyses the production of light from the substrate luciferin. When plasmid constructs containing this gene are transfected into cell lines the activity of the gene can be assessed by the intensity of the luminesence. The luciferase assay yields luminescence through an ATP-dependent oxidation of luciferin the amount of light produced can be measured by a luminometer and is a measure of gene activity (Davis, 1996). Light intensity was measured in a Luminometer (LB 9501, Berthold). The light intensity should be proportional to luciferase concentration in the range of 10^−16M (10 μg/L) to 10^−8M (1 mg/L). To measure the luminescence of the treated cells 150 μl of 1× reporter lysis buffer (RLB: 25 mM Tris phosphate pH7.8, 10 mM MgCl2, 15% Glycerol, 1% Triton, 1 mM EDTA) was added to the 24 well plates to lyse the cells and incubated at room temperature for 30 mins whilst being shaken. Then 100 μl of the room temperature cell extract were mixed with 100 μl of room temperature Luciferase Assay Reagent (LAR: 1 mM ATP, 0.3 mM D-Luciferin, 66% RLB). This reaction was mixed in a luminometer (LB 9501, Berthold) and the light produced was measured for a period of 5 seconds.
To perform this assay the GR and p65 were artificially expressed in a cell line lacking GR and deficient in endogenous P65. The ability of P65 to activate an NFkB response element (NRE) “driving” a luciferase reporter gene could then be repressed by GR in a ligand dependent manner and, therefore, used to measure transrepression.
COS7 cells were transfected with 1 μg pcDNA3-GR and 3 μg NRE-Luc and 200 ng p65 per 10 cm tissue culture dish. The cells were plated out in to 24 well plates after transfection and left for 18 hours to recover before the steroids of FIGS. 1 and 2A were added. After another 18 hour incubation the cells were lysed and a luciferase assay was performed.

In data set [5] the test system is zymosan induced neutrophil migration. The data set is described as follows: Air pouch model of inflammation, zymosan induced neutrophil migration. The class given is in vivo, mice. The procedure: Male outbred Swiss albino mice (18-20 g body weight) were purchased from Bantin and Kingman (T.O. strain; Hull, Humberside) and maintained on a standard chow pellet diet with tap water ad libitum and a 12:00 h light/dark cycle. All animals were housed for 3 days prior to experimentation to allow body weight to reach 20-22 g. On the day of experiment mice ranged from 24-26 g.
Air-pouches were formed on the back of mice by air injection (2.5 ml s.c.) on day 0 and day 3 (Perretti and Flower, 1993).
Zymosan A was allowed to defrost at room temperature for 30 min prior to being added to sterile PBS at a concentration of 2 mg/ml forming a homogenous suspension.
(§2) At time 0, mice received either 0.5 ml of zymosan (1 mg) (group A, B, C) injected locally into the air-pouch. Group D and E were left untreated at this time-point. At 4 h post-zymosan the animals were placed in CO2. Air-pouches were then washed with 2 ml of PBS containing 3 mM EDTA, and livers were recovered and snap frozen for later analysis.
The number of migrated leukocytes (≧90% polymorphonuclear leukocytes, PMN) was determined in the lavage fluid from each air-pouch, by taking an aliquot (100 μl) of the lavage fluid and diluting 1:10 in Turk's solution (0.01% crystal violet in 3% acetic acid). The samples were then vortexed and 10 μl of the stained cell solution were placed in a Neubauer haematocymometer and neutrophils numbers counted using a light microscope (Olympus B061).
Neutrophil numbers were compared between groups using ANOVA plus the Bonferroni test. TAT levels were compared using a t-test.

The subject of data set [6] is tyrosine amino transferase (TAT). The data set is described as follows: Quantitation of tyrosine amino transferase (TAT) in the livers of air pouch mice. The class given is in vivo. Particulars: 3 μg i.p., FIG. 22. The procedure:
as §2
Quantitation of Tyrosine Amino Transferase (TAT) Protein in the Livers: In this method a colourimetric approach is used to quantitate TAT activity. The TAT enzyme catalyses the following reaction: L-tyrosine+2-oxoglutarate⇄4-hydroxyphenylpyruvate (pHPP)+L-glutamate
This reaction also requires pyridoxal phosphate (PLP) as a co-factor. Strong alkali conditions can then be used to convert pHPP to p-hydroxybenzaldehyde (pHBA) and oxalate. The amount of pHBA can then be assessed by measuring its absorbance at 331 nm (extinction coefficient 19,900 M^−1cm^−1) this figure is then assumed to be directly proportional to TAT activity. Livers were homogenized and the cells were stored on ice. […]
For each reaction a control reaction was set up without the ketoglutarate. […] The samples were incubated at room temperature for a further 30 mins and then the absorbance of each sample was assessed at 331 nm on a spectrophotometer (Ultrospec III, Pharmacia).

Regarding `CCCNC(=O)OCC(=O)C1(O)C(C)CC2C3CCC4=CC(=O)C=CC4(C)C3(F)C(O)CC21C` (stereo not shown) [Compound H], the “repression of TNF activation of A549 cells (NRE reporter gene)” value in data set [1] was “exhibited transrepression”. Moreover, the “repression of IL-8 production after TNF activation” value in data set [2] is on record as “exhibited transrepression”. Further, the “nuclear translocation of the GFP tagged glucocorticoid receptor” value in data set [3] is “caused nuclear localisation”. In data set [4], the “repression of P65 stimulation of an NFkB response element compared with dexamethasone” value is on record as “less potent than dexamethasone but produced the same maximal response at 100 nM”.
Consider `C[C@@H]1C[C@H]2[C@@H]3CCC4=CC(=O)C=C[C@]4(C)[C@@]3(F)[C@@H](O)C[C@]2(C)[C@@]1(O)C(=O)CO` [Dexamethasone, reference compound], for which, in data set [5] (3 μg i.p. at -1 h, Zymosan 1 mg into air-pouch, 4 h time-point, mean ± S.E. of 8 mice), the “Neutrophils (10^6 per mouse)” value was 6.23 ± 0.44 * 10^6 per mouse. Further, the “reduction of neutrophil accumulation” value in data set [5] (3 μg i.p., zymosan air pouch, 4 h) is recorded as roughly 30%. The “liver TAT level compared with vehicle control groups” value in data set [6] is “further elevation of TAT”.
